# In patent US7745450B2, “Pyrazolo[4,3-d]pyrimidines, processes for their preparation and methods for therapy” (Institute of Experimental Botany, priority 2002, dated 2010):
# Read-outs that look alike come from different tables or passages of the source.
# Assays:
# [1] = test system: DNA synthesis; test: Inhibition of DNA synthesis in Xenopus egg extracts; format: biochemical; settings: [α-32P]dATP incorporation after 3 h
# Procedure: Metaphase-arrested Xenopus egg extracts were prepared as described previously by Blow “J. Cell Biol.” 1993; 122:993 and stored in liquid nitrogen. Demembranated Xenopus sperm nuclei were prepared as described. by Blow & Laskey “Cell” 1986; 47:577. After thawing, extracts were supplemented with 25 mM phosphocreatine, 5 μg/ml creatine phosphokinase, 250 μg/ml cycloheximide, [α-^32P]dATP (for DNA synthesis assays). Demembranated sperm nuclei were added to a final sperm concentration of 3 ng/μl DNA extract and CDK inhibitor tested was then added at different concentrations. […] DNA synthesis was assessed by releasing extract into interphase by the addition of 0.3 mM CaCl2 and measuring the total amount of [α-^32P]dATP incorporation after 3 h by TCA co-precipitation.
# [2] = target: cdc2a-MS protein (plant CDK, cdc2Ms kinase) (Vicia faba, UniProt A0AAV0YZ35); test: CDK inhibitory activity on plant kinases (plant CDK); format: biochemical; settings: histone H1 phosphorylation
# Chain of cdc2a-MS protein (plant CDK, cdc2Ms kinase) (A0AAV0YZ35 1-294): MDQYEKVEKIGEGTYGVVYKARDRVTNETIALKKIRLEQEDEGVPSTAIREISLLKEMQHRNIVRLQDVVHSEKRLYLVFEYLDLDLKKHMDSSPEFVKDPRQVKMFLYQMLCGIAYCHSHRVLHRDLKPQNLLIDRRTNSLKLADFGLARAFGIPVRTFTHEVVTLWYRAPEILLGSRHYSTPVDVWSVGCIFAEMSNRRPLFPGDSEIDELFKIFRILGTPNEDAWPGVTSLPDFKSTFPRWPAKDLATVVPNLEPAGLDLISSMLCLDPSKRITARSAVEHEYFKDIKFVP
# Procedure: Protein extraction and purification of pant CDK by binding to p13^suc1-beads or immunopurification with an antibody specific to the cdc2a-MS protein was carried out as described previously (Bögre et al. 1997, Plant Physiol. 113, 1997, 841-852). The MMK1 protein kinase was purified with a specific antibody from Vicia faba extracts as described by Bögre et al. 1997a, Plant Cell 9, 75-83). Protein kinase activity was measures as described above in Example 20. The quantification of radioactivity incorporated into histone H1 or myelin basic protein was undertaken using phosphoimager (FIG. 2).
# [3] = test system: CEM (human lymphoblastoid leukemia); test: In vitro cytotoxic activity, Calcein AM; format: cell-based; settings: three days
# Method in brief: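 CEM cells were seeded at 10^4/well in DMEM + 10% FBS and exposed to six concentrations from 200 to 0.2 μM, in triplicate, for 3 days at 37 °C and 5% CO2. Viable cells were then measured by Calcein AM fluorescence after 1 h loading.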
# [4] = test system: B16; test: In vitro cytotoxic activity, Calcein AM; format: cell-based; settings: three days
# [5] = target: MMK1 protein kinase (Vicia faba, UniProt A0AAV1B7B8); test: MMK1 protein kinase activity; format: biochemical
# Chain of MMK1 protein kinase (A0AAV1B7B8 1-394): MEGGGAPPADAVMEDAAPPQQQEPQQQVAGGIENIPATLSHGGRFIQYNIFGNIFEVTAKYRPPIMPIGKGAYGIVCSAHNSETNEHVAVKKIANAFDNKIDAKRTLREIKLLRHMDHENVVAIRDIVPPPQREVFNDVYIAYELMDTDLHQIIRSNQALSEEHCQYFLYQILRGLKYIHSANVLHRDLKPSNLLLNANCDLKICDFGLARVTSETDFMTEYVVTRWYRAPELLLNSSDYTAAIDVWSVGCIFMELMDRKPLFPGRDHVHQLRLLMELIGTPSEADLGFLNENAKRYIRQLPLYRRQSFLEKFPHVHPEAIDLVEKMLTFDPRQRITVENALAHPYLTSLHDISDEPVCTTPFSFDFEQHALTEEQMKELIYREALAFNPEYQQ
# Method in brief: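 Plant CDK was purified from extracts on p13^suc1-beads or by anti-cdc2a-MS immunopurification, and MMK1 was immunopurified from Vicia faba extracts. Kinase activity was read as radioactivity incorporated into histone H1 or myelin basic protein, quantified by phosphoimager.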
# [6] = test system: normal human lymphocytes; test: Immunosuppressive activity, 3H-thymidine incorporation in concanavalin A activated lymphocytes; format: cell-based; settings: Lymphocyte, 72 hours, [3H]-TdR, read-out: Human lymphocytes ED50
# [7] = test system: human melanoma cell line Arn8 (p53-responsive reporter); test: p53-dependent transcriptional activity, β-galactosidase reporter; format: cell-based; settings: concentration inducing maximum of β-galactosidase activity
# Procedure: Cell lines established from the human cervical carcinoma (HeLa), human breast carcinoma (MCF-7, BT549 and BR474), human osteosarcoma (HOS), human colon carcinoma (HT29), murine fibroblasts (T221acZ) and the human melanoma (Arn8) cell lines were cultured in Dubecco's Modified Eagle Medium (DMEM) supplemented with 10% fetal bovine serum. Tested compounds were added from 50 mM stock solution in dimethyl-sulphoxide (DMSO) into the culture medium at final concentration 20 μM. Control cells received an equivalent volume of DMSO.
# β-galactosidase activity of human melanoma cell line […] T221acZ (both stabile transfected with a p53-responsive reporter construct pRGCΔfoslacZ) (Frebung et al., Cancer Res., 52, 1992-6976) was determined. For the determination of total β-galactosidase activity, cells were lysed by 3 freeze-thaw cycles in 0.25 M Tris pH 7.5, and lysates were assayed as described by Sambrook et al., Mol. cloning, New York, 1989.
# Effect of 25 and related compounds on activation of p53 protein was also analyzed in human melanoma cell line Arn8 and murine fibroblast cell line T22LacZ expressing β-galactosidase under control of p53 responsive promoter. Induction of wt p53 in these cells treated with 20 μM 25 (6, 12 and 24 hrs) leads to activation of responsive promoter and consequently to expression of β-galactosidase. Arn8 and T221acZ cells treated with 25 were fixed and examined microscopically for β-galactosidase activity using X-gal substrate leading to about 25% blue-colored cells compared to less than 1% of blue-colored cells in DMSO-treated control cells (data not shown). The total β-galactosidase activity in Arn8 cells was also assessed using colorimetric assay.
# [8] = target: cdk1/cyclin B (CDC2) (Homo sapiens, UniProt P06493); test: CDK inhibition assay, cdk1/cyclin B (CDC2) kinase, histone phosphorylation; format: biochemical
# Chain of cdk1/cyclin B (CDC2) (P06493 whole entry, species assumed): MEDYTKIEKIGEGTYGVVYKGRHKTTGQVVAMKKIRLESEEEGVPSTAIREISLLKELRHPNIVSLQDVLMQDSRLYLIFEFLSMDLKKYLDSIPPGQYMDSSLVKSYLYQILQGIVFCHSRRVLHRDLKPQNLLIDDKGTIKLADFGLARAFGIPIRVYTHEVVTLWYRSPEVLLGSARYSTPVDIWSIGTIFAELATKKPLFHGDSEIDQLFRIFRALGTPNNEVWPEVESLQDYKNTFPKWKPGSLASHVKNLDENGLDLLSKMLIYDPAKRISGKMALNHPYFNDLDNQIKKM
# Chain of cdk1/cyclin B (CDC2) (P14635 whole entry partner, species assumed): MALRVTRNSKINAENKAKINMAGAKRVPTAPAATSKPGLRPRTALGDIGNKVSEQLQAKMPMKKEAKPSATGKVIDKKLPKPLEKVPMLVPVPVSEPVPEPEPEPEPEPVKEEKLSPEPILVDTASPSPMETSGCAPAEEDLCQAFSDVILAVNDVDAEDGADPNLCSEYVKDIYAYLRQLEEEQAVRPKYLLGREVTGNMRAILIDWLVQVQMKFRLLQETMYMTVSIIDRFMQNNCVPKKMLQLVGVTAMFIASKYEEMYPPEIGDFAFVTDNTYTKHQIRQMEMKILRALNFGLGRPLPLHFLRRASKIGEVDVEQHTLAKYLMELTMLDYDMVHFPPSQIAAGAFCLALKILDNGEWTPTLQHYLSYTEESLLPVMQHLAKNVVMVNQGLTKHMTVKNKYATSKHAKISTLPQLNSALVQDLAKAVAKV
# Method in brief: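 Radiometric endpoint kinase assay under linear conditions: histone (1 mg/ml) phosphorylated with 15 μM ATP and [γ-32P]ATP in 50 mM HEPES pH 7.4, 10 mM MgCl2, 1 mM DTT. IC50 obtained graphically from dose-response curves of % maximal activity, read by imaging analyzer.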
# [9] = target: IκB-α kinase; test: IκB-α kinase inhibition, in vitro kinase assay; format: biochemical
# [10] = test system: Cytokinin-dependent tobacco callus Nicotiana tabacum L. cv. Wisconsins 38; test: Tobacco callus bioassay for cytotoxicity (herbicidal activity); format: cell-based; settings: Nicotiana tabacum, 672 h
# Method in brief: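 Compounds were prepared in DMSO as a 10^−3 M stock in water. Growth inhibition was scored from fresh callus weight gain after four weeks, with five replicates and the test run at least twice.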
# [11] = test system: β-adrenergic receptors; test: Modulation of isoproterenol-induced cAMP synthesis in rat C6 glioma; format: cell-based; settings: cAMP synthesis induced by 5 μM (−) isoproterenol, simultaneous addition, 30 min
# Procedure: Mechanism of action of novel compounds is presented on FIG. 3. Rat C6 glioma (ATCC N° CCL107) was cultivated in monolayer in serum-free chemically defined medium containing Ham's F10/minimal essential medium (1:1 vol/vol), 2 mM L-glutamine, 1% (vol/vol) minimal essential medium vitamins (100×), 1% (vol/vol) minimal essential medium nonessential amino acids (100×), 100 U/ml penicillin, 100 μg/ml streptomycin and 30 nM sodium selenide. Incubation was at 37° C. in a humidified atmosphere. Assays were performed in the logarithmic growth phase at a density of 2.5×10^5 cells/cm^2. Intracellular cAMP synthesis was induced by addition of 5 μM (−) isoproterenol. After 30 min incubation at 37° C. the medium was removed and the cellular amount of cAMP determined using the cAMP-enzyme immunoassay kit of Amersham. The I50 is determined from a dose-response curve in duplicate.
# The effect of seven purine-analogs was measured after simultaneous addition with isoproterenol.
# [12] = read-out: 10^−5 M BAP IC50, 10^−5 M 6-benzylaminopurine, four weeks
# [13] = read-out: 10^−6 M BAP IC50, 10^−6 M 6-benzylaminopurine, four weeks
smiles,measurement,setting,value
CC(C)c1n[nH]c2c(NCc3cccc(Cl)c3O)nc(NCCCO)nc12,IC50,[1],3700 nM
CC(C)c1n[nH]c2c(Nc3ccc(Cl)c(N)c3)nc(NCCCO)nc12,IC50,[1],400 nM
COc1cc(O)c(CNc2nc(N[C@@H](CO)C(C)C)nc3c(C(C)C)n[nH]c23)c(O)c1,IC50,[2],0.7 nM
same,GI50,[3],1200 nM
same,GI50,[4],2700 nM
Cc1n[nH]c2c(NCc3ccccc3)nc(N[C@@H](CO)C(C)C)nc12,IC50,[5],400 nM
same,GI50,"[3]; Homo sapiens, 72 h",2800 nM
same,EC50,[6],6500 nM
same,Max β-Gal. Activtity Conc.,[7],6.5 µM
same,GI50,"[4]; Mus musculus, B16, 72 h",4300 nM
CC[C@H](CO)Nc1nc(NCc2ccc(Cl)c(N)c2N)c2[nH]nc(C(C)C)c2n1,IC50,[8],200 nM
same,IC50,[9],400 nM
same,IC50,[1],300 nM
same,IC50,[10]; [12],49000 nM
same,IC50,[10]; [13],8300 nM
CC[C@H](CO)Nc1nc(NCc2cc(O)c(OC)cc2O)c2[nH]nc(C(C)C)c2n1,IC50,[2],2 nM
same,GI50,[3],3500 nM
same,GI50,[4],5700 nM
"CC(C)c1n[nH]c2c(Nc3cccc(Cl)c3)nc(Cl)nc12 [Example 11, 7-(3-chloroanilino)-5-chloro-3-isopropylpyrazolo[4,3-d]pyrimidine]",melting point,,257 to 259 °C
"CC(C)c1n[nH]c2c(NCc3ccccc3)nc(NCCN)nc12 [Example 14, 7-benzylamino-5-(2-aminoethyl)amino-3-isopropylpyrazolo[4,3-d]pyrimidine]",IC50,[8],400 nM
same,IC50,[9],1200 nM
same,Effect: activation,[11],1.3-fold activation
same,IC50,[10]; [12],> 50000 nM
same,IC50,[10]; [13],> 50000 nM
same,melting point,,145 to 147 °C
"COc1ccc(CNc2nc(NCc3ccc(OC)cc3)c3[nH]nc(C(C)C)c3n2)cc1 [Example 17, 5,7-di[(4-methoxybenzyl)amino]-3-isopropylpyrazolo[4,3-d]pyrimidine]",melting point,,60 to 85 °C
